In ChEMBL document CHEMBL1201862, “PubChem BioAssay data set” (2004):
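96-well plates; 48 h exposure; 5 concentrations. Endpoints by linear interpolation between flanking doses. Not reached: highest tested concentration assigned. Here, GI50 denotes the concentration required for 50% inhibition of growth.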 Calls of active or inactive are those of the source. No stated cut-off is given here; in the data, active = GI50 up to about 1.1 µM and inactive = higher.

Assays:
Experiment in all cases: NCI anticancer screen, dose series, 48 h
BT-549 = test system: BT-549
Malme-3M = test system: Malme-3M
UO-31 = test system: UO-31
LOX IMVI = test system: LOX IMVI
SK-MEL-28 = test system: SK-MEL-28
NCI/ADR-RES = test system: NCI/ADR-RES
ACHN = test system: ACHN
HOP-62 = test system: HOP-62
HCC 2998 = test system: HCC 2998
OVCAR-5 = test system: OVCAR-5
K562 = test system: K562
UACC-62 = test system: UACC-62
UACC-257 = test system: UACC-257
CAKI-1 = test system: CAKI-1
DU-145 = test system: DU-145
A549 = test system: A549
NCI-H522 = test system: NCI-H522
T47D = test system: T47D
SF-295 = test system: SF-295
OVCAR-8 = test system: OVCAR-8
SF-539 = test system: SF-539
SW-620 = test system: SW-620
MCF7 = test system: MCF7
PC-3 = test system: PC-3
NCI-H23 = test system: NCI-H23
OVCAR-4 = test system: OVCAR-4
786-0 = test system: 786-0
SN12C = test system: SN12C
EKVX = test system: EKVX
MDA-MB-435 = test system: MDA-MB-435
U-251 = test system: U-251
Hs-578T = test system: Hs-578T
RXF 393 = test system: RXF 393
CCRF-CEM = test system: CCRF-CEM
SK-MEL-5 = test system: SK-MEL-5
COLO 205 = test system: COLO 205
SF-268 = test system: SF-268
IGROV-1 = test system: IGROV-1
KM12 = test system: KM12
RPMI-8226 = test system: RPMI-8226
M14 = test system: M14
HCT-15 = test system: HCT-15
HT-29 = test system: HT-29
HOP-92 = test system: HOP-92
SNB-19 = test system: SNB-19
MDA-N = test system: MDA-N
NCI-H226 = test system: NCI-H226
MOLT-4 = test system: MOLT-4
SK-OV-3 = test system: SK-OV-3
SR = test system: SR
SNB-75 = test system: SNB-75
MDA-MB-231 = test system: MDA-MB-231
NCI-H460 = test system: NCI-H460
HL-60 = test system: HL-60
OVCAR-3 = test system: OVCAR-3
HCT-116 = test system: HCT-116
A498 = test system: A498
SK-MEL-2 = test system: SK-MEL-2
TK-10 = test system: TK-10

In the case of `C=O.NNCCc1n[nH]c(=O)n1N`, the GI50 (BT-549) is reported as > 100 µM (inactive), the GI50 (Malme-3M) is reported as > 100 µM (inactive) and the GI50 (UO-31) is reported as > 100 µM (inactive). For the same compound, the GI50 (LOX IMVI) was > 100 µM (inactive), the GI50 (SK-MEL-28) was > 100 µM (inactive) and the GI50 (NCI/ADR-RES) was > 100 µM (inactive). The GI50 (ACHN) was > 100 µM (inactive), the GI50 (HOP-62) was > 100 µM (inactive) and the GI50 (HCC 2998) was > 100 µM (inactive). The GI50 (OVCAR-5) was > 100 µM (inactive), the GI50 (K562) was > 100 µM (inactive) and the GI50 (UACC-62) was > 100 µM (inactive). The GI50 (UACC-257) was > 100 µM (inactive), the GI50 (CAKI-1) was > 100 µM (inactive) and the GI50 (DU-145) was > 100 µM (inactive). The GI50 (A549) was > 100 µM (inactive), the GI50 (NCI-H522) was > 100 µM (inactive) and the GI50 (T47D) was > 100 µM (inactive). The GI50 (SF-295) was > 100 µM (inactive), the GI50 (OVCAR-8) was > 100 µM (inactive) and the GI50 (SF-539) was > 100 µM (inactive). For the same compound, the GI50 (SW-620) was > 100 µM (inactive), the GI50 (MCF7) was > 100 µM (inactive) and the GI50 (PC-3) was > 100 µM (inactive). The GI50 (NCI-H23) was > 100 µM (inactive), the GI50 (OVCAR-4) was > 100 µM (inactive) and the GI50 (786-0) was > 100 µM (inactive). For the same compound, the GI50 (SN12C) was > 100 µM (inactive), the GI50 (EKVX) was > 100 µM (inactive) and the GI50 (MDA-MB-435) was > 100 µM (inactive). The GI50 (U-251) was > 100 µM (inactive), the GI50 (Hs-578T) was > 100 µM (inactive) and the GI50 (RXF 393) was > 100 µM (inactive). The GI50 (CCRF-CEM) was > 100 µM (inactive), the GI50 (SK-MEL-5) was > 100 µM (inactive) and the GI50 (COLO 205) was > 100 µM (inactive). For the same compound, the GI50 (SF-268) was > 100 µM (inactive), the GI50 (IGROV-1) was > 100 µM (inactive) and the GI50 (KM12) was > 100 µM (inactive). The GI50 (RPMI-8226) was > 100 µM (inactive), the GI50 (M14) was > 100 µM (inactive) and the GI50 (HCT-15) was over 100 µM. For the same compound, the GI50 (HT-29) was > 100 µM (inactive), the GI50 (HOP-92) was > 100 µM (inactive) and the GI50 (SNB-19) was > 100 µM (inactive). For the same compound, the GI50 (MDA-N) was > 100 µM (inactive), the GI50 (NCI-H226) was > 100 µM (inactive) and the GI50 (MOLT-4) was > 100 µM (inactive). For the same compound, the GI50 (SK-OV-3) was > 100 µM (inactive), the GI50 (SR) was > 100 µM (inactive) and the GI50 (SNB-75) was 97.7 µM (inactive). The GI50 (MDA-MB-231) was > 100 µM (inactive), the GI50 (NCI-H460) was > 100 µM (inactive) and the GI50 (HL-60) was > 100 µM (inactive). For the same compound, the GI50 (OVCAR-3) was > 100 µM (inactive) and the GI50 (HCT-116) was > 100 µM (inactive).
`COC(=O)c1c(C)nc(C)c(NO)c1-c1ccccc1C(F)(F)F` was tested, and the GI50 (BT-549) was 16.7 µM (inactive), the GI50 (Malme-3M) was 16.9 µM (inactive) and the GI50 (UO-31) was 29.5 µM (inactive). For the same compound, the GI50 (LOX IMVI) was 38.3 µM (inactive), the GI50 (SK-MEL-28) was 20.4 µM (inactive) and the GI50 (NCI/ADR-RES) was 18.2 µM (inactive). The GI50 (ACHN) was 30.8 µM (inactive), the GI50 (HOP-62) was > 100 µM (inactive) and the GI50 (HCC 2998) was > 100 µM (inactive). The GI50 (OVCAR-5) was 31.8 µM (inactive), the GI50 (K562) was 28.3 µM (inactive) and the GI50 (UACC-62) was 64.9 µM (inactive). For the same compound, the GI50 (UACC-257) was 22 µM (inactive), the GI50 (CAKI-1) was 16.2 µM (inactive) and the GI50 (DU-145) was 32.8 µM (inactive). The GI50 (A498) was > 100 µM (inactive), the GI50 (A549) was > 100 µM (inactive) and the GI50 (NCI-H522) was 17.2 µM (inactive). For the same compound, the GI50 (T47D) was 28 µM (inactive), the GI50 (SF-295) was > 100 µM (inactive) and the GI50 (OVCAR-8) was 18.5 µM (inactive). The GI50 (SF-539) was 16 µM (inactive), the GI50 (SW-620) was 16 µM (inactive) and the GI50 (MCF7) was 19.2 µM (inactive). For the same compound, the GI50 (PC-3) was 70.5 µM (inactive), the GI50 (NCI-H23) was 35.6 µM (inactive) and the GI50 (OVCAR-4) was 20 µM (inactive). For the same compound, the GI50 (786-0) was 16.4 µM (inactive), the GI50 (SN12C) was 27 µM (inactive) and the GI50 (EKVX) was 83 µM (inactive). For the same compound, the GI50 (MDA-MB-435) was 19.6 µM (inactive), the GI50 (U-251) was > 100 µM (inactive) and the GI50 (Hs-578T) was 62.4 µM (inactive). For the same compound, the GI50 (SK-MEL-2) was 53.8 µM (inactive), the GI50 (RXF 393) was 16.7 µM (inactive) and the GI50 (CCRF-CEM) was 29.2 µM (inactive). For the same compound, the GI50 (SK-MEL-5) was 41.7 µM (inactive), the GI50 (COLO 205) was 27.1 µM (inactive) and the GI50 (TK-10) was 17.1 µM (inactive). For the same compound, the GI50 (SF-268) was 41.4 µM (inactive), the GI50 (IGROV-1) was 18.8 µM (inactive) and the GI50 (KM12) was 34.7 µM (inactive). The GI50 (RPMI-8226) was 15.1 µM (inactive), the GI50 (M14) was 19 µM (inactive) and the GI50 (HCT-15) was 16.1 µM. For the same compound, the GI50 (HT-29) was 18.4 µM (inactive), the GI50 (HOP-92) was 14.2 µM (inactive) and the GI50 (SNB-19) was > 100 µM (inactive). The GI50 (MDA-N) was 16.8 µM (inactive), the GI50 (NCI-H226) was 20.2 µM (inactive) and the GI50 (MOLT-4) was 26.1 µM (inactive). For the same compound, the GI50 (SK-OV-3) was > 100 µM (inactive), the GI50 (SR) was 30.2 µM (inactive) and the GI50 (MDA-MB-231) was 13.8 µM (inactive). For the same compound, the GI50 (NCI-H460) was > 100 µM (inactive), the GI50 (HL-60) was 5.41 µM (inactive) and the GI50 (OVCAR-3) was 16.7 µM (inactive). For the same compound, the GI50 (HCT-116) was 16.3 µM (inactive).
